# Test results: patent US9326513B2, “Fungicidal compositions” (Syngenta Participations AG, priority 2011, dated 2016)
# Where “and” joins values, the source holds several entries; their conditions need not be identical. Equal entries are not always repeated.
# Assays:
# [1] = tested on: Blumeria graminis f. sp. tritici (Erysiphe graminis f. sp. tritici); assay: Blumeria graminis f. sp. tritici / wheat / leaf disc preventative (powdery mildew on wheat); type: in vivo; settings: foliar, compared to untreated control leaf disks, read-out: disease control
# In short: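 Preventative leaf-disc test: compound (200 ppm) was sprayed onto cv. Kanzler wheat segments, which were dusted with conidia from infected plants 1 day after application. After incubation at 20° C and 60% rh, disease control relative to untreated segments was rated 6-8 days after application.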
# [2] = tested on: Puccinia recondita f. sp. tritici; assay: Puccinia recondita f. sp. tritici / wheat / leaf disc preventative (brown rust); type: in vivo; settings: foliar, compared to untreated control leaf disks, read-out: disease control
# Excerpt: Puccinia recondita f. sp. tritici/Wheat/Leaf Disc Preventative (Brown Rust) Wheat leaf segments cv. Kanzler were placed on agar in multiwell plates (24-well format) and sprayed with the formulated test compound diluted in water. The leaf disks were inoculated with a spore suspension of the fungus 1 day after application.
# [3] = tested on: Puccinia recondita f. sp. tritici; assay: Puccinia recondita f. sp. tritici / wheat / leaf disc curative (brown rust); type: in vivo; settings: foliar, compared to untreated control leaf disks, read-out: disease control
# Method: Puccinia recondita f. sp. tritici/Wheat/Leaf Disc Curative (Brown Rust) Wheat leaf segments cv. Kanzler are placed on agar in multiwell plates (24-well format). The leaf segments are inoculated with a spore suspension of the fungus. Plates were stored in darkness at 19° C. and 75% rh. The formulated test compound diluted in water was applied 1 day after inoculation.
# [4] = tested on: Monographella nivalis (syn. Microdochium nivale, Fusarium nivale); assay: Monographella nivalis (snow mould, foot rot of cereals), PDB microtiter plate, visual after 72 hrs; type: cell-based; settings: applied alone
# Botrytis cinerea = Botrytis cinerea (gray mould), PDB microtiter plate, visual after 72 hrs; type: cell-based; settings: alone
# Septoria tritici [5] = assay: Septoria tritici (leaf blotch), PDB microtiter plate, visual after 72 hrs; type: cell-based; settings: Zymoseptoria tritici, single compound
# Septoria tritici [6] = assay: Septoria tritici (leaf blotch), YBG microtiter plate, photometric growth inhibition after 6 days; type: cell-based; settings: Zymoseptoria tritici, 144 h, solo
# Sclerotinia sclerotiorum = Sclerotinia sclerotiorum on oilseed rape, preventive treatment; type: in vivo; settings: solo, 1 day preventive, 11 days after application
# Excerpt: In the following Tables ‘Activity (%)’ means the assessed experimental activity (% disease control in this test when compared to untreated control leaf disks under the same conditions, which show extensive disease development) and “P” is the expected value calculated (expected) activity according to the COLBY formula (see above). The column headed ‘S?’ indicates whether or not synergy was observed, with ‘y’ meaning that synergy was observed.
# Sclerotinia sclerotiorum on Oilseed Rape, Preventive Treatment
# The compound activity was tested under 1 day preventive conditions. Oilseed rape plants with 3 unfolded leafs were sprayed with a track sprayer and 200 I/ha spray volume with the test compounds, either solo or in tankmix as shown in the table below.
# 1 day after application the plants were infested with a solution of Sclerotinia sclerotiorum mycelium. The plants were placed under plastic hoods and high humidity conditions in a climate chamber at 14 h day/10 h night cycle and 15° C. Disease infestation was evaluated visually 11 days after application and average activity calculated in relation to disease severity on untreated check.
# Sphaerotheca fuliginea = Sphaerotheca fuliginea (powdery mildew) on cucumber, preventive treatment; type: in vivo; settings: solo, 2 days preventive, 10 days after application
# Excerpt: In the following Tables 'Activity (%)' means the assessed experimental activity (% disease control in this test when compared to untreated control leaf disks under the same conditions, which show extensive disease development) and “P” is the expected value calculated (expected) activity according to the COLBY formula (see above). The column headed 'S?' indicates whether or not synergy was observed, with 'y' meaning that synergy was observed. Sphaerotheca fuliqinea (Powdery Mildew) on Cucumber, Preventive Treatment […] Cucumber plants with unfolded cotyledons were sprayed with a roomsprayer and 40 ml/4 plants spray volume with the test compounds, either solo or in […] shown in the table below. 2 days after application the plants were infested with spores of Sphaerotheca fuliginea.
# [7] = tested on: Fusarium graminearum and Fusarium culmorum; type: in vivo; settings: solo, 200 g a.i./ha; wheat, 1 day preventive, 9 days after application
# [8] = tested on: Phakopsora pachyrhizi (triazole tolerant soybeanrust strain); assay: Phakopsora pachyrhizi on soybean, preventive treatment; type: in vivo; settings: solo, soybean leaf discs, 1 day preventive, 11 days after application
# Septoria tritici [9] = assay: Septoria tritici on wheat, preventive treatment; type: in vivo; settings: solo, wheat Riband, 1 day preventive, 18 days after application
smiles,measurement,setting,value
CCN(C)/C=N/c1cc(Br)c(O[C@H]2CC[C@@H](C(C)C)CC2)nc1C [Q.135],pest or weed control at 200 ppm,[1],≥ 50%
same,pest or weed control at 200 ppm,[2],≥ 50%
same,pest or weed control at 200 ppm,[3],≥ 50%
same,inhibition at 0.0078125 ppm,"[4]; Monographella nivalis, rate 0.0078125 ppm",0%
same,inhibition at 0.015625 ppm,"[4]; Monographella nivalis, rate 0.015625 ppm",0%
same,inhibition at 0.125 ppm,"[4]; Monographella nivalis, rate 0.125 ppm",70%
same,inhibition at 0.3125 ppm,"[4]; Monographella nivalis, rate 0.3125 ppm",0%
same,inhibition at 0.625 ppm,"[4]; Monographella nivalis, rate 0.625 ppm",50%
same,Activity (%),[4]; rate 0.0625 ppm,20%
same,inhibition at 0.00390625 ppm,"Botrytis cinerea; Botrytis cinerea, rate 0.00390625 ppm",0%
same,inhibition at 0.0078125 ppm,"Botrytis cinerea; Botrytis cinerea, rate 0.0078125 ppm",0%
same,inhibition at 0.015625 ppm,"Botrytis cinerea; Botrytis cinerea, rate 0.015625 ppm",0%
same,inhibition at 0.03125 ppm,"Botrytis cinerea; Botrytis cinerea, rate 0.03125 ppm, read-out: Activity (%)",0%
same,inhibition at 0.0625 ppm,"Botrytis cinerea; Botrytis cinerea, rate 0.0625 ppm, read-out: Activity (%)",0%
same,inhibition at 0.125 ppm,"Botrytis cinerea; Botrytis cinerea, rate 0.125 ppm",0%
same,inhibition at 0.25 ppm,"Botrytis cinerea; Botrytis cinerea, rate 0.25 ppm",0%
same,inhibition at 2 ppm,"Botrytis cinerea; Botrytis cinerea, rate 2 ppm",70%
same,Activity (%),Botrytis cinerea; rate 0.5 ppm,20%
same,Activity (%),Botrytis cinerea; rate 1 ppm,20%
same,Activity (%),Botrytis cinerea; rate 2 ppm,50%
same,inhibition at 0.00390625 ppm,Septoria tritici [5]; 0.00390625 ppm,0%
same,inhibition at 0.0078125 ppm,Septoria tritici [5]; 0.0078125 ppm,0%
same,inhibition at 0.015625 ppm,Septoria tritici [5]; 0.015625 ppm,0%
same,inhibition at 0.03125 ppm,Septoria tritici [5]; 0.03125 ppm,0%
same,inhibition at 0.0625 ppm,Septoria tritici [5]; 0.0625 ppm,0%
same,inhibition at 0.125 ppm,Septoria tritici [5]; 0.125 ppm,0%
same,inhibition at 0.25 ppm,"Septoria tritici [5]; 0.25 ppm, read-out: Activity (%)",0%
same,inhibition at 0.5 ppm,Septoria tritici [5]; 0.5 ppm,0%
same,inhibition at 1 ppm,Septoria tritici [5]; 1 ppm,0%
same,inhibition at 2 ppm,Septoria tritici [5]; 2 ppm,0%
same,inhibition of growth at 0.15625 ppm,"Septoria tritici [6]; rate 0.15625 ppm, read-out: Activity",29%
same,inhibition of growth at 0.3125 ppm,Septoria tritici [6]; rate 0.3125 ppm,34%
same,inhibition of growth at 0.625 ppm,Septoria tritici [6]; rate 0.625 ppm,32%
same,inhibition of growth at 1.25 ppm,Septoria tritici [6]; rate 1.25 ppm,22%
same,Activity,Sclerotinia sclerotiorum; rate 25 ppm,0%
same,Activity,Sclerotinia sclerotiorum; rate 50 ppm,0%
same,Activity,Sclerotinia sclerotiorum; rate 100 ppm,15%
same,Activity,Sphaerotheca fuliginea; rate 0.2 ppm,0%
same,Activity,Sphaerotheca fuliginea; rate 0.6 ppm,0%
same,Activity,Sphaerotheca fuliginea; rate 2 ppm,0%
same,Activity,[7],28%
same,Activity,[8]; rate 0.5 g ai/ha,13%
same,Activity,[8]; rate 2 g ai/ha,41%
same,Activity,Septoria tritici [9]; 1 g a.i./ha,0%
same,Activity,Septoria tritici [9]; 3 g a.i./ha,0% and 9%
same,Activity,Septoria tritici [9]; 9 g a.i./ha,33% and 43%
same,Activity,Septoria tritici [9]; 27 g a.i./ha,52% and 82%
same,Activity,Septoria tritici [9]; 81 g a.i./ha,70%
